From publication PMC11440465, “Detection of Sulfonamide Antibiotics Using an Elastic Hydrogel Microparticles-Based Optical Biosensor” (ACS Applied Materials & Interfaces, 2024)

Target: T1, Dihydropteroate synthase (DHPS) (Streptococcus pneumoniae, UniProt P05382)
T1 construct: gene sulA; dimer; immobilized on PEMA or POMA coated glass
Assay: competitive hydrogel microparticle (SCP) binding assay, RICM contact area
Conditions: DHPS immobilized on PEMA-coated glass; 0.1 M MOPS pH 6.0, 5 mM MgCl2, 600 uM pyrophosphate, room temperature; competes with SMX derivative on microparticles

T1 sequence (P05382 whole entry): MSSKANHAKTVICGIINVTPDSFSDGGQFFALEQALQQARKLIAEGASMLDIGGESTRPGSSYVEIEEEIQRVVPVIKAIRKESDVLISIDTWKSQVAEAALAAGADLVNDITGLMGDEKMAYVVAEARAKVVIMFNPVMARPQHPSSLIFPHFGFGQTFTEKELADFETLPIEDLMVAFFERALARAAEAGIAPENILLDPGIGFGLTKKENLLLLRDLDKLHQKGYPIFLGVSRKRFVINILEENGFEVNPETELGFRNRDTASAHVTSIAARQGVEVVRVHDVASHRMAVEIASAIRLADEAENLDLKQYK

Cc1cc(NS(=O)(=O)c2ccc(N)cc2)no1 [SMX, sulfamethoxazole]
% decrease of SCP contact area diameter at 1 mM: > 50%
